Strand notation (5' to 3'): a small letter for the sugar, then the base; units joined by * are phosphorothioate-linked, units joined directly phosphodiester-linked; [ ] holds rarer units or linkages, { } end groups; capitals alone tell only the bases. e = 2'-O-(2-methoxyethyl) (MOE); [5mC] = 5-methylcytosine; d = 2'-deoxy (DNA)
Experiments:
[1] = test system: human macrophage inflammatory protein 3-alpha mRNA; experiment: Antisense inhibition of human macrophage inflammatory protein 3-alpha mRNA levels, quantitative real-time PCR (Table 1 screen); type: cell-based; settings: averages from two experiments, oligonucleotide concentration not given
[2] = test system: human macrophage inflammatory protein 3-alpha mRNA; experiment: Dose-response inhibition of cytokine-induced macrophage inflammatory protein 3-alpha mRNA expression in NHEK cells; type: cell-based; settings: 24 Hr after oligonucleotide treatment, percent inhibition of cytokine-induced control, averages from two experiments; for % Inhibition of cytokine induced macrophage inflammatory protein 3-alpha mRNA expression, 50 nM: 50 nM oligonucleotide; for % Inhibition of cytokine induced macrophage inflammatory protein 3-alpha mRNA expression, 100 nM: 100 nM oligonucleotide; for % Inhibition of cytokine induced macrophage inflammatory protein 3-alpha mRNA expression, 200 nM: 200 nM oligonucleotide

## 150677 (antisense eT*eA*e[5mC]*e[5mC]*e[5mC]*dA*dG*dT*dT*d[5mC]*dT*dT*dT*dG*dG*eG*eA*eG*eT*eG) [compound 150677]
[1]
  % INHIB (inhibition of human macrophage inflammatory protein 3-alpha mRNA levels): 0%

## 150678 (antisense eA*eG*eT*eG*eT*dT*dG*dA*dG*dT*dA*d[5mC]*d[5mC]*d[5mC]*dA*eG*eT*eT*e[5mC]*eT) [compound 150678]
[1]
  % INHIB (inhibition of human macrophage inflammatory protein 3-alpha mRNA levels): 34%

## 150679 (antisense eA*eG*eA*eT*e[5mC]*dT*dG*d[5mC]*dT*d[5mC]*dA*dG*dT*dG*dT*eT*eG*eA*eG*eT) [compound 150679]
[1]
  % INHIB (inhibition of human macrophage inflammatory protein 3-alpha mRNA levels): 16%

## 150680 (antisense e[5mC]*eT*e[5mC]*eA*eA*dA*dG*dA*dA*d[5mC]*dA*dG*dA*dT*d[5mC]*eT*eG*e[5mC]*eT*e[5mC]) [compound 150680]
[1]
  % INHIB (inhibition of human macrophage inflammatory protein 3-alpha mRNA levels): 41%
[2]
  % Inhibition of cytokine induced macrophage inflammatory protein 3-alpha mRNA expression, 50 nM: 13%
  % Inhibition of cytokine induced macrophage inflammatory protein 3-alpha mRNA expression, 100 nM: 47%
  % Inhibition of cytokine induced macrophage inflammatory protein 3-alpha mRNA expression, 200 nM: 68%

## 150681 (antisense eT*eG*eG*eT*eT*dT*dT*dT*dA*dG*d[5mC]*dT*d[5mC]*dA*dA*eA*eG*eA*eA*e[5mC]) [compound 150681]
[1]
  % INHIB (inhibition of human macrophage inflammatory protein 3-alpha mRNA levels): 22%

## 150683 (antisense eA*eA*eG*eT*eT*dG*d[5mC]*dT*dT*dG*d[5mC]*dT*dG*d[5mC]*dT*eT*e[5mC]*eT*eG*eA) [compound 150683]
[1]
  % INHIB (inhibition of human macrophage inflammatory protein 3-alpha mRNA levels): 15%

## 150684 (antisense e[5mC]*eA*eG*e[5mC]*eA*dG*dT*d[5mC]*dA*dA*dA*dG*dT*dT*dG*e[5mC]*eT*eT*eG*e[5mC]) [compound 150684]
[1]
  % INHIB (inhibition of human macrophage inflammatory protein 3-alpha mRNA levels): 15%

## 150685 (antisense eG*eT*eG*eT*eG*dA*dA*dA*dG*dA*dT*dG*dA*dT*dA*eG*e[5mC]*eA*eT*eT) [compound 150685]
[1]
  % INHIB (inhibition of human macrophage inflammatory protein 3-alpha mRNA levels): 0%

## 150686 (antisense eA*eT*eT*e[5mC]*e[5mC]*dA*dG*dA*dA*dA*dA*dG*d[5mC]*d[5mC]*dA*e[5mC]*eA*eG*eT*eT) [compound 150686]
[1]
  % INHIB (inhibition of human macrophage inflammatory protein 3-alpha mRNA levels): 1%

## 150687 (antisense eG*eT*e[5mC]*e[5mC]*eA*dA*dT*dT*d[5mC]*d[5mC]*dA*dT*dT*d[5mC]*d[5mC]*eA*eG*eA*eA*eA) [compound 150687]
[1]
  % INHIB (inhibition of human macrophage inflammatory protein 3-alpha mRNA levels): 34%
[2]
  % Inhibition of cytokine induced macrophage inflammatory protein 3-alpha mRNA expression, 50 nM: 19%
  % Inhibition of cytokine induced macrophage inflammatory protein 3-alpha mRNA expression, 100 nM: 51%
  % Inhibition of cytokine induced macrophage inflammatory protein 3-alpha mRNA expression, 200 nM: 65%

## 150688 (antisense e[5mC]*eT*eT*eG*eG*dG*d[5mC]*dT*dA*dT*dG*dT*d[5mC]*d[5mC]*dA*eA*eT*eT*e[5mC]*e[5mC]) [compound 150688]
[1]
  % INHIB (inhibition of human macrophage inflammatory protein 3-alpha mRNA levels): 46%
[2]
  % Inhibition of cytokine induced macrophage inflammatory protein 3-alpha mRNA expression, 50 nM: 43%
  % Inhibition of cytokine induced macrophage inflammatory protein 3-alpha mRNA expression, 100 nM: 69%
  % Inhibition of cytokine induced macrophage inflammatory protein 3-alpha mRNA expression, 200 nM: 80%

## 150689 (antisense e[5mC]*eA*eA*eG*eG*dT*dT*d[5mC]*dT*dT*dT*d[5mC]*dT*dG*dT*eT*e[5mC]*eT*eT*eG) [compound 150689]
[1]
  % INHIB (inhibition of human macrophage inflammatory protein 3-alpha mRNA levels): 41%
[2]
  % Inhibition of cytokine induced macrophage inflammatory protein 3-alpha mRNA expression, 50 nM: 16%
  % Inhibition of cytokine induced macrophage inflammatory protein 3-alpha mRNA expression, 100 nM: 60%
  % Inhibition of cytokine induced macrophage inflammatory protein 3-alpha mRNA expression, 200 nM: 77%

## 150692 (antisense eG*e[5mC]*eA*eA*eT*dA*dT*dG*dA*dA*dT*d[5mC]*dA*dA*d[5mC]*eT*eT*e[5mC]*eA*eT) [compound 150692]
[1]
  % INHIB (inhibition of human macrophage inflammatory protein 3-alpha mRNA levels): 39%
[2]
  % Inhibition of cytokine induced macrophage inflammatory protein 3-alpha mRNA expression, 50 nM: 34%
  % Inhibition of cytokine induced macrophage inflammatory protein 3-alpha mRNA expression, 100 nM: 59%
  % Inhibition of cytokine induced macrophage inflammatory protein 3-alpha mRNA expression, 200 nM: 73%

## 150693 (antisense eA*e[5mC]*eT*eA*eT*dG*dA*dT*dG*d[5mC]*dA*dA*dT*dA*dT*eG*eA*eA*eT*e[5mC]) [compound 150693]
[1]
  % INHIB (inhibition of human macrophage inflammatory protein 3-alpha mRNA levels): 29%
[2]
  % Inhibition of cytokine induced macrophage inflammatory protein 3-alpha mRNA expression, 50 nM: 25%
  % Inhibition of cytokine induced macrophage inflammatory protein 3-alpha mRNA expression, 100 nM: 58%
  % Inhibition of cytokine induced macrophage inflammatory protein 3-alpha mRNA expression, 200 nM: 63%

## 150694 (antisense eA*eT*eG*eT*eG*dA*dT*dG*d[5mC]*dT*dT*dA*dA*dA*d[5mC]*eA*eA*eA*eG*e[5mC]) [compound 150694]
[1]
  % INHIB (inhibition of human macrophage inflammatory protein 3-alpha mRNA levels): 30%

## 150695 (antisense e[5mC]*eA*e[5mC]*eA*eG*dA*dA*dA*dA*d[5mC]*d[5mC]*dT*dA*d[5mC]*dA*eG*e[5mC]*eT*eA*eT) [compound 150695]
[1]
  % INHIB (inhibition of human macrophage inflammatory protein 3-alpha mRNA levels): 11%

## 150696 (antisense eG*e[5mC]*eA*e[5mC]*eT*dA*dA*dA*d[5mC]*d[5mC]*dA*dA*dA*dA*dT*eA*eG*e[5mC]*eT*eT) [compound 150696]
[1]
  % INHIB (inhibition of human macrophage inflammatory protein 3-alpha mRNA levels): 27%

## 150697 (antisense eG*e[5mC]*eA*eA*eG*dA*dA*dA*dG*dT*d[5mC]*d[5mC]*dA*dT*dA*eT*eA*eA*eT*e[5mC]) [compound 150697]
[1]
  % INHIB (inhibition of human macrophage inflammatory protein 3-alpha mRNA levels): 18%

## 150698 (antisense eG*e[5mC]*eA*eA*eT*dT*dA*d[5mC]*dA*dA*d[5mC]*dA*dA*dT*dT*eT*eA*eG*eG*eA) [compound 150698]
[1]
  % INHIB (inhibition of human macrophage inflammatory protein 3-alpha mRNA levels): 21%

## ISIS 150678: 2′-MOE gapmer, phosphorothioate, 5-methylcytidines; AGTGTTGAGTACCCAGTTCT (antisense eA*eG*eT*eG*eT*dT*dG*dA*dG*dT*dA*d[5mC]*d[5mC]*d[5mC]*dA*eG*eT*eT*e[5mC]*eT)
[1]
  % INHIB (inhibition of human macrophage inflammatory protein 3-alpha mRNA levels): at least 20%

## ISIS 150680: 2′-MOE gapmer, phosphorothioate, 5-methylcytidines; CTCAAAGAACAGATCTGCTC (antisense e[5mC]*eT*e[5mC]*eA*eA*dA*dG*dA*dA*d[5mC]*dA*dG*dA*dT*d[5mC]*eT*eG*e[5mC]*eT*e[5mC])
[1]
  % INHIB (inhibition of human macrophage inflammatory protein 3-alpha mRNA levels): at least 20%

## ISIS 150681: 2′-MOE gapmer, phosphorothioate, 5-methylcytidines; TGGTTTTTAGCTCAAAGAAC (antisense eT*eG*eG*eT*eT*dT*dT*dT*dA*dG*d[5mC]*dT*d[5mC]*dA*dA*eA*eG*eA*eA*e[5mC])
[1]
  % INHIB (inhibition of human macrophage inflammatory protein 3-alpha mRNA levels): at least 20%

## ISIS 150682: 2′-MOE gapmer, phosphorothioate, 5-methylcytidines; GTACAGCACATGGTTTTAG
[1]
  % INHIB (inhibition of human macrophage inflammatory protein 3-alpha mRNA levels): at least 20%

## ISIS 150687: 2′-MOE gapmer, phosphorothioate, 5-methylcytidines; GTCCAATTCCATTCCAGAAA (antisense eG*eT*e[5mC]*e[5mC]*eA*dA*dT*dT*d[5mC]*d[5mC]*dA*dT*dT*d[5mC]*d[5mC]*eA*eG*eA*eA*eA)
[1]
  % INHIB (inhibition of human macrophage inflammatory protein 3-alpha mRNA levels): at least 20%

## ISIS 150688: 2′-MOE gapmer, phosphorothioate, 5-methylcytidines; CTTGGGCTATGTCCAATTCC (antisense e[5mC]*eT*eT*eG*eG*dG*d[5mC]*dT*dA*dT*dG*dT*d[5mC]*d[5mC]*dA*eA*eT*eT*e[5mC]*e[5mC])
[1]
  % INHIB (inhibition of human macrophage inflammatory protein 3-alpha mRNA levels): at least 20%

## ISIS 150689: 2′-MOE gapmer, phosphorothioate, 5-methylcytidines; CAAGGTTCTTTCTGTTCTTG (antisense e[5mC]*eA*eA*eG*eG*dT*dT*d[5mC]*dT*dT*dT*d[5mC]*dT*dG*dT*eT*e[5mC]*eT*eT*eG)
[1]
  % INHIB (inhibition of human macrophage inflammatory protein 3-alpha mRNA levels): at least 20%

## ISIS 150690: 2′-MOE gapmer, phosphorothioate, 5-methylcytidines; CTGAAACCTCCAACCCCAGC
[1]
  % INHIB (inhibition of human macrophage inflammatory protein 3-alpha mRNA levels): at least 20%

## ISIS 150692: 2′-MOE gapmer, phosphorothioate, 5-methylcytidines; GCAATATGAATCAACTTCAT (antisense eG*e[5mC]*eA*eA*eT*dA*dT*dG*dA*dA*dT*d[5mC]*dA*dA*d[5mC]*eT*eT*e[5mC]*eA*eT)
[1]
  % INHIB (inhibition of human macrophage inflammatory protein 3-alpha mRNA levels): at least 20%

## ISIS 150693: 2′-MOE gapmer, phosphorothioate, 5-methylcytidines; ACTATGATGCAATATGAATC (antisense eA*e[5mC]*eT*eA*eT*dG*dA*dT*dG*d[5mC]*dA*dA*dT*dA*dT*eG*eA*eA*eT*e[5mC])
[1]
  % INHIB (inhibition of human macrophage inflammatory protein 3-alpha mRNA levels): at least 20%

## ISIS 150694: 2′-MOE gapmer, phosphorothioate, 5-methylcytidines; ATGTGATGCTTAAACAAAGC (antisense eA*eT*eG*eT*eG*dA*dT*dG*d[5mC]*dT*dT*dA*dA*dA*d[5mC]*eA*eA*eA*eG*e[5mC])
[1]
  % INHIB (inhibition of human macrophage inflammatory protein 3-alpha mRNA levels): at least 20%

## ISIS 150696: 2′-MOE gapmer, phosphorothioate, 5-methylcytidines; GCACTAAACCAAAATAGCTT (antisense eG*e[5mC]*eA*e[5mC]*eT*dA*dA*dA*d[5mC]*d[5mC]*dA*dA*dA*dA*dT*eA*eG*e[5mC]*eT*eT)
[1]
  % INHIB (inhibition of human macrophage inflammatory protein 3-alpha mRNA levels): at least 20%

## ISIS 150698: 2′-MOE gapmer, phosphorothioate, 5-methylcytidines; GCAATTACAACAATTTAGGA (antisense eG*e[5mC]*eA*eA*eT*dT*dA*d[5mC]*dA*dA*d[5mC]*dA*dA*dT*dT*eT*eA*eG*eG*eA)
[1]
  % INHIB (inhibition of human macrophage inflammatory protein 3-alpha mRNA levels): at least 20%
